Data published in patent US20260183274A1, “PDK1 REGULATORY COMPOUND AND COMPOSITION CONTAINING THE SAME” (PROVIBIO CO., LTD., priority 2024, published 2026).

System: T cells isolated from mouse spleens
Test: T cell proliferation inhibition (CFSE flow cytometry, anti-CD3/anti-CD28 stimulation)
Assay type: cell-based
Conditions: mouse spleen T cells, 3 days; for inhibition at 0.01 µM / inhibition at 0.1 µM / inhibition at 1 µM / inhibition at 10 µM / inhibition at 30 µM / inhibition at 50 µM: Mus musculus, T-cell, 72 h, read-out: Proliferation inhibition rate (%)
Procedure: To verify the T cell proliferation inhibitory effect of the compounds according to the present invention, the following experiment was performed based on flow cytometry analysis using carboxyfluorescein diacetate succinimidyl ester (CFSE), a fluorescent dye that binds to intracellular molecules via covalent bonds.
Spleens were extracted from 7-week-old C57BL/6 mice, ground, and then separated into single cells using a strainer (40 μm pore size, SPL). Red blood cells were removed using ACK (Ammonium-Chloride-Potassium) lysis buffer to isolate white blood cells.
Finally, using a MACS Magnetic Stand and LS column, T cells were isolated from the spleen.
The T cells isolated from the spleen were resuspended in 1 mL of free medium (RPMI-1640+200 U/mL penicillin+200 μg/mL streptomycin), and 0.3 μL of CFSE (10 mM) was added. The mixture was incubated at 37° C. for 5 minutes.
Free medium (10 mL) was added to stop the reaction, and the cells were centrifuged to obtain the cell pellet.
RPMI 1640 medium containing 10% FBS, 100 U/mL penicillin, 100 μg/mL streptomycin, and resuspended the cells. The cells were then seeded into a 96-well plate at a density of 2×10^5 cells per well and activated with CD3 and CD28 antibodies (0.5 μg/mL each) to activate T cells.
The compound diluted in DMSO was added at concentrations of 10 nM, 100 nM, 1 μM, 10 μM, 30 μM, and 50 μM, with three wells per concentration, and cultured at 37° C. and 5% CO2 for three days. The cells were then analyzed using a FACS Canto instrument.
The proliferation inhibition rate (%) was calculated using the following formula: […]

Nc1ncccc1C(=O)NCCCCCCCCCCCCN1CCN(C=O)CC1 [Compound 97, 2-amino-N-(12-(4-formylpiperazin-1-yl)dodecyl) nicotinamide]
Proliferation inhibition rate (%) (compound 10 nM): 3.51%
Proliferation inhibition rate (%) (compound 100 nM): 40.64%
Proliferation inhibition rate (%) (compound 1 μM): 100.00%
Proliferation inhibition rate (%) (compound 10 μM): 100.00%
Proliferation inhibition rate (%) (compound 30 μM): 100.00%
Proliferation inhibition rate (%) (compound 50 μM): 100.00%

CCNCCCCCCCCCCCCNC(=O)c1cccnc1N [Compound 98, 2-amino-N-(12-(ethylamino)dodecyl)nicotinamide]
inhibition at 0.01 µM (compound 10 nM): -4.82%
inhibition at 0.1 µM (compound 100 nM): -3.95%
inhibition at 1 µM (compound 1 μM): 100%
inhibition at 10 µM (compound 10 μM): 100%
inhibition at 30 µM (compound 30 μM): 100%
inhibition at 50 µM (compound 50 μM): 100%

Nc1ncccc1C(=O)NCCCCCCCCCCCCN1CCN(C(=O)C2CC2)CC1 [Compound 99, 2-amino-N-(12-(4-(cyclopropanecarbonyl)piperazin-1-yl)dodecyl)nicotinamide]
inhibition at 0.01 µM (compound 10 nM): -12.1%
inhibition at 0.1 µM (compound 100 nM): 100%
inhibition at 1 µM (compound 1 μM): 100%
inhibition at 10 µM (compound 10 μM): 100%
inhibition at 30 µM (compound 30 μM): 100%
inhibition at 50 µM (compound 50 μM): 100%

CC(C)(C)OC(=O)NC1CCN(CCCCCCCCCCCCNC(=O)c2cccnc2N)CC1 [Compound 101, tert-Butyl (1-(12-(2-aminonicotinamido)dodecyl)piperidin-4-yl) carbamate]
Proliferation inhibition rate (%) (compound 10 nM): −0.15%
Proliferation inhibition rate (%) (compound 100 nM): 100.00%
Proliferation inhibition rate (%) (compound 1 μM): 100.00%
Proliferation inhibition rate (%) (compound 10 μM): 100.00%
Proliferation inhibition rate (%) (compound 30 μM): 100.00%
Proliferation inhibition rate (%) (compound 50 μM): 100.00%

CC1(C)CCN(CCCCCCCCCCCCNC(=O)c2cccnc2N)CC1 [Compound 102, 2-Amino-N-(12-(4,4-dimethylpiperidin-1-yl)dodecyl)nicotinamide]
inhibition at 0.01 µM (compound 10 nM): -4.53%
inhibition at 0.1 µM (compound 100 nM): 100%
inhibition at 1 µM (compound 1 μM): 100%
inhibition at 10 µM (compound 10 μM): 100%
inhibition at 30 µM (compound 30 μM): 100%
inhibition at 50 µM (compound 50 μM): 100%

CCOC(=O)C1CCN(CCCCCCCCCCCCNC(=O)c2cccnc2N)CC1 [Compound 103, Ethyl 1-(12-(2-aminonicotinamido)dodecyl)piperidine-4-carboxylate]
inhibition at 0.01 µM (compound 10 nM): -6.43%
inhibition at 0.1 µM (compound 100 nM): 100%
inhibition at 1 µM (compound 1 μM): 100%
inhibition at 10 µM (compound 10 μM): 100%
inhibition at 30 µM (compound 30 μM): 100%
inhibition at 50 µM (compound 50 μM): 100%

CC(C)N1CCN(CCCCCCCCCCCCNC(=O)c2cccnc2N)CC1 [Compound 104, 2-Amino-N-(12-(4-isopropylpiperazin-1-yl)dodecyl) nicotinamide]
Proliferation inhibition rate (%) (compound 10 nM): 100.00%
Proliferation inhibition rate (%) (compound 100 nM): 100.00%
Proliferation inhibition rate (%) (compound 1 μM): 100.00%
Proliferation inhibition rate (%) (compound 10 μM): 100.00%
Proliferation inhibition rate (%) (compound 30 μM): 100.00%
Proliferation inhibition rate (%) (compound 50 μM): 100.00%

Cc1nn(CCCCCCCCCCCCNC(=O)c2cccnc2N)cc1Br [Compound 105, 2-Amino-N-(12-(4-bromo-3-methyl-1H-pyrazol-1-yl)dodecyl)nicotinamide]
inhibition at 0.01 µM (compound 10 nM): 6.73%
inhibition at 0.1 µM (compound 100 nM): 8.33%
inhibition at 1 µM (compound 1 μM): 38.9%
inhibition at 10 µM (compound 10 μM): 100%
inhibition at 30 µM (compound 30 μM): 100%
inhibition at 50 µM (compound 50 μM): 100%

Nc1ncccc1C(=O)NCCCCCCCCCCCCn1ccc2ccc(I)cc21 [Compound 106, 2-Amino-N-(12-(6-iodo-1H-indol-1-yl)dodecyl)nicotinamide]
inhibition at 0.01 µM (compound 10 nM): 0.44%
inhibition at 0.1 µM (compound 100 nM): -1.9%
inhibition at 1 µM (compound 1 μM): 0.44%
inhibition at 10 µM (compound 10 μM): 100%
inhibition at 30 µM (compound 30 μM): 100%
inhibition at 50 µM (compound 50 μM): 100%

Nc1ncccc1C(=O)NCCCCCCCCCCCCN1CCC(C(F)F)CC1 [Compound 107, 2-Amino-N-(12-(4-(difluoromethyl)piperidin-1-yl)dodecyl)nicotinamide]
inhibition at 0.01 µM (compound 10 nM): -35.2%
inhibition at 0.1 µM (compound 100 nM): 100%
inhibition at 1 µM (compound 1 μM): 100%
inhibition at 10 µM (compound 10 μM): 100%
inhibition at 30 µM (compound 30 μM): 100%
inhibition at 50 µM (compound 50 μM): 100%

Nc1ncccc1C(=O)NCCCCCCCCCCCCN1CCC2(CC1)CC2 [Compound 108, N-(12-(6-Azaspiro[2.5]octan-6-yl)dodecyl)-2-aminonicotinamide]
inhibition at 0.01 µM (compound 10 nM): 0.88%
inhibition at 0.1 µM (compound 100 nM): 28.5%
inhibition at 1 µM (compound 1 μM): 100%
inhibition at 10 µM (compound 10 μM): 100%
inhibition at 30 µM (compound 30 μM): 100%
inhibition at 50 µM (compound 50 μM): 100%

Nc1ncccc1C(=O)NCCCCCCCCCCCCn1ccc2c(Cl)c(I)cnc21 [Compound 109, 2-Amino-N-(12-(4-chloro-5-iodo-1H-pyrrolo[2,3-b]pyridin-1-yl)dodecyl)nicotinamide]
inhibition at 0.01 µM (compound 10 nM): 0.15%
inhibition at 0.1 µM (compound 100 nM): 8.48%
inhibition at 1 µM (compound 1 μM): 20.9%
inhibition at 10 µM (compound 10 μM): 100%
inhibition at 30 µM (compound 30 μM): 100%
inhibition at 50 µM (compound 50 μM): 100%

C[C@@H]1CN(CCCCCCCCCCCCNC(=O)c2cccnc2N)C[C@H](C)O1 [Compound 110, 2-amino-N-(12-((2S,6R)-2,6-dimethylmorpholino)dodecyl)nicotinamide]
inhibition at 0.01 µM (compound 10 nM): -36.7%
inhibition at 0.1 µM (compound 100 nM): 100%
inhibition at 1 µM (compound 1 μM): 100%
inhibition at 10 µM (compound 10 μM): 100%
inhibition at 30 µM (compound 30 μM): 100%
inhibition at 50 µM (compound 50 μM): 100%

CC(C)(C)OC(=O)N1CCN(CCCCCCCCCCCCNC(=O)c2cccnc2N)CC1 [Compound 111, tert-butyl-4-(12-(2-aminonicotinamido)dodecyl) piperazine-1-carboxylate]
Proliferation inhibition rate (%) (compound 10 nM): 0.00%
Proliferation inhibition rate (%) (compound 100 nM): 100.00%
Proliferation inhibition rate (%) (compound 1 μM): 100.00%
Proliferation inhibition rate (%) (compound 10 μM): 100.00%
Proliferation inhibition rate (%) (compound 30 μM): 100.00%
Proliferation inhibition rate (%) (compound 50 μM): 100.00%

Nc1ncccc1C(=O)NCCCCCCCCCCCCN1CCN(CC2CCCCC2)CC1 [Compound 113, 2-amino-N-(12-(4-(cyclohexylmethyl)piperazin-1-yl)dodecyl)nicotinamide]
inhibition at 0.01 µM (compound 10 nM): 11.1%
inhibition at 0.1 µM (compound 100 nM): 100%
inhibition at 1 µM (compound 1 μM): 100%
inhibition at 10 µM (compound 10 μM): 100%
inhibition at 30 µM (compound 30 μM): 100%
inhibition at 50 µM (compound 50 μM): 100%

Nc1ncccc1C(=O)NCCCCCCCCCCCCN1CCC(F)(F)CC1 [Compound 114, 2-amino-N-(12-(4,4-difluoropiperidin-1-yl)dodecyl)nicotinamide]
inhibition at 0.01 µM (compound 10 nM): -18.3%
inhibition at 0.1 µM (compound 100 nM): 26.2%
inhibition at 1 µM (compound 1 μM): 100%
inhibition at 10 µM (compound 10 μM): 100%
inhibition at 30 µM (compound 30 μM): 100%
inhibition at 50 µM (compound 50 μM): 100%

Nc1ncccc1C(=O)NCCCCCCCCCCCCN1CCC(F)CC1 [Compound 115, 2-amino-N-(12-(4-fluoropiperidin-1-yl)dodecyl)nicotinamide]
inhibition at 0.01 µM (compound 10 nM): -11.4%
inhibition at 0.1 µM (compound 100 nM): 100%
inhibition at 1 µM (compound 1 μM): 100%
inhibition at 10 µM (compound 10 μM): 100%
inhibition at 30 µM (compound 30 μM): 100%
inhibition at 50 µM (compound 50 μM): 100%

COC(=O)C1CCN(CCCCCCCCCCCCNC(=O)c2cccnc2N)C1 (stereo not drawn) [Compound 116, Methyl-1-(12-(2-aminonicotinamido)dodecyl) pyrrolidine-3-carboxylate]
Proliferation inhibition rate (%) (compound 10 nM): −1.90%
Proliferation inhibition rate (%) (compound 100 nM): 26.17%
Proliferation inhibition rate (%) (compound 1 μM): 100.00%
Proliferation inhibition rate (%) (compound 10 μM): 100.00%
Proliferation inhibition rate (%) (compound 30 μM): 100.00%
Proliferation inhibition rate (%) (compound 50 μM): 100.00%

CC(C)(C)OC(=O)N[C@@H]1CCCN(CCCCCCCCCCCCNC(=O)c2cccnc2N)C1 [Compound 117, tert-butyl-(R)-(1-(12-(2-aminonicotinamido)dodecyl)piperidin-3-yl) carbamate]
Proliferation inhibition rate (%) (compound 10 nM): −15.79%
Proliferation inhibition rate (%) (compound 100 nM): 100.00%
Proliferation inhibition rate (%) (compound 1 μM): 100.00%
Proliferation inhibition rate (%) (compound 10 μM): 100.00%
Proliferation inhibition rate (%) (compound 30 μM): 100.00%
Proliferation inhibition rate (%) (compound 50 μM): 100.00%

CN1CCN(CCCCCCCCCCCCNC(=O)c2cccnc2Cl)CC1 [Compound 118, 2-chloro-N-(12-(4-methylpiperazin-1-yl)dodecyl)nicotinamide]
inhibition at 0.01 µM (compound 10 nM): 4.24%
inhibition at 0.1 µM (compound 100 nM): 4.82%
inhibition at 1 µM (compound 1 μM): 12.6%
inhibition at 10 µM (compound 10 μM): 34.5%
inhibition at 30 µM (compound 30 μM): 88.6%
inhibition at 50 µM (compound 50 μM): 100%

Nc1ncccc1C(=O)NCCCCCCCCCCCCN1CCOC1=O [Compound 127, 2-amino-N-(12-(2-oxooxazolidin-3-yl)dodecyl) nicotinamide]
Proliferation inhibition rate (%) (compound 10 nM): −2.24%
Proliferation inhibition rate (%) (compound 100 nM): 10.30%
Proliferation inhibition rate (%) (compound 1 μM): 15.07%
Proliferation inhibition rate (%) (compound 10 μM): 100.00%
Proliferation inhibition rate (%) (compound 30 μM): 100.00%
Proliferation inhibition rate (%) (compound 50 μM): 100.00%
